The record followed here is patent US20220288069A1, “INHIBITORS OF TYROSINE KINASE” (BridGene Biosciences, Inc., priority 2019, published 2022).

The target in one experiment is T1, FLT3 (Homo sapiens, UniProt P36888).
T1 construct: purchased ThermoFisher PV3182
T1 sequence (P36888 27-993): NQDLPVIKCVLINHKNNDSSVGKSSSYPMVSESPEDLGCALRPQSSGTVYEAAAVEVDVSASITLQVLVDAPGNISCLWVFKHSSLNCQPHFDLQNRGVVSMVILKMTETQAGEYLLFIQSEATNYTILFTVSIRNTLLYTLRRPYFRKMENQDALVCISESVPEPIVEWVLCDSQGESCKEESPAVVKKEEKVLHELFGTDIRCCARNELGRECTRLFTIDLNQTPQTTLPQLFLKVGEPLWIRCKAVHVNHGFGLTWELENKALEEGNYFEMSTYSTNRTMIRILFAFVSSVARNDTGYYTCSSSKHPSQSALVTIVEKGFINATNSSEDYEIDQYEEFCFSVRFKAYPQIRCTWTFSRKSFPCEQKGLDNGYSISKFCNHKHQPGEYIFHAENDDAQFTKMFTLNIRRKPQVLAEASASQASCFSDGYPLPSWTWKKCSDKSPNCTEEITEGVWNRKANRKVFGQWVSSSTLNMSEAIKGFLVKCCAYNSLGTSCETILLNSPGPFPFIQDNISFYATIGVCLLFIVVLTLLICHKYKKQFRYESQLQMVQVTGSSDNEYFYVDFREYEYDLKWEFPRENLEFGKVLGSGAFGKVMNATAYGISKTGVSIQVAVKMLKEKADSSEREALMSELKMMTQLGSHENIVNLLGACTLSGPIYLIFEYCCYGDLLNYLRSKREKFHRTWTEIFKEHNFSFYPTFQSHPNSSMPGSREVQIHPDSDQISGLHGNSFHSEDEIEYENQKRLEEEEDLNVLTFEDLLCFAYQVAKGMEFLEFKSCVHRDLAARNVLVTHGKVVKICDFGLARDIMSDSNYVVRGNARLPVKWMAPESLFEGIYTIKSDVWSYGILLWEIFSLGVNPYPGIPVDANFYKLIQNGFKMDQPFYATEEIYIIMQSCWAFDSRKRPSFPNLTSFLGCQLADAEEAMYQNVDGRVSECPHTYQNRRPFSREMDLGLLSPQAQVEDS
The experiment is described as follows: Caliper mobility shift kinase inhibition assay, FLT3. The experiment is classed as biochemical. As to conditions: recombinant kinase; enzyme 0.1 nM, ATP 95 μM, incubation 3 hr. How it is done: Compounds' inhibition of recombinant kinases (FGR, FLT3, FMS, KIT, or RON) was measured using Caliper mobility shift assay, which is based on the difference in capillary electrophoresis mobility of a fluorescent-tagged peptide as a result of a phosphorylation by the kinase under study. Reactions were started by the addition of various concentrations of a compound (originally in DMSO solution) to a kinase solution in assay buffer followed by addition of a mixture of ATP and a fluorescent-tagged peptide substrate in assay buffer. Concentrations of the enzyme, ATP and the peptide were pre-optimized so that 15% substrate conversion to ensure initial velocity measurements. After incubation for 3 hours at room temperature, the kinase reaction was quenched by the addition of a concentrated EDTA solution before analysis on a LabChip EZ Reader II to yield percentage inhibition by comparing to the DMSO control.
Table 2 below summarizes the assay conditions for the characterization of the kinase inhibition properties of the disclosed compounds.

The next experiment concerns THP−1. The experiment is described as follows: Cell viability assay (CellTiter-Glo), THP-1. The experiment is classed as cell-based. To be noted: THP-1 cells, 72 hr; for GI50: Homo sapiens. How it is done: (§1) Cell viability assay was performed based on the following brief procedures. Cells were plated at the density of 5K/well with volume of […] in 96-well white plate and clear bottom plates. 20 μL of veh. or compound was added at proper concentration to the well. The final volume is 200 μL, with final conc. of DMSO32 0.1%, 11 points, triplicates. The cells were then treated at 37° C. in the TC incubator for 72 hr. Equal volume (200 μL) of CellTiter-Glo reagent (Promega) was added to the well and protect from light at room temperature for 15 min. The chemiluminicent was measured with EnSight (Perkin Elmer). GraphPad Prism non-linear regression, Log[inhibitor] response with four parameters were used to calculate GI50.
A general note: In ATP-based viability assays light output follows the ATP content of the culture.

The subject of the next experiment is MV4−11. The experiment is described as follows: Cell viability assay (CellTiter-Glo), MV4-11. The format is cell-based. As to conditions: Homo sapiens, MV4-11 cells, 72 hr. How it is done:
as §1

One may read the IC50 as the concentration that gives 50% inhibition. On to `C=CC(=O)N1CCOC[C@H]1C(=O)NCCOc1cc(Nc2ncc(-c3ccccc3)s2)nc(C)n1` [Compound 14, (3S)—N-[2-[2-methyl-6-[(5-phenylthiazol-2-yl)amino]pyrimidin-4-yl]oxyethyl]-4-prop-2-enoyl-morpholine-3-carboxamide], for which the IC50 on FLT3 was less than 0.01 µM. For `C=CC(=O)N1CCN(C)C[C@H]1C(=O)NCCOc1cc(Nc2ncc(-c3ccccc3)s2)nc(C)n1` [Compound 15, (2S)-4-methyl-N-[2-[2-methyl-6-[(5-phenylthiazol-2-yl)amino]pyrimidin-4-yl]oxyethyl]-1-prop-2-enoyl-piperazine-2-carboxamide], the IC50 at FLT3 was less than 0.01 µM.

For `C/C=C/C(=O)N(C)[C@@H](C)C(=O)NCCOc1cc(Nc2ncc(-c3ccccc3)s2)nc(C)n1` [Compound 16, N-methyl-N-[(1S)-1-methyl-2-[2-[2-methyl-6-[(5-phenylthiazol-2-yl)amino]pyrimidin-4-yl]oxyethylamino]-2-oxoethyl]but-2-enamide], on FLT3, the concentration for half-maximal inhibition (IC50) fell in the range of 0.01 to 0.1 µM. For `C=CC(=O)N(C)[C@@H](C)C(=O)NCCN(C)c1cc(Nc2ncc(-c3ccncc3)s2)nc(C)n1` [Compound 19, (2S)—N-[2-[methyl-[2-methyl-6-[[5-(4-pyridyl)thiazol-2-yl]amino]pyrimidin-4-yl]amino]ethyl]-2-[methyl(prop-2-enoyl)amino]propanamide], on FLT3, the IC50 was less than 0.01 µM. As to `C=CC(=O)N(C)[C@@H](C)C(=O)N[C@H]1CCN(c2cc(Nc3ncc(-c4ccncc4)s3)nc(C)n2)C1` [Compound 20, (2S)-2-[methyl(prop-2-enoyl)amino]-N-[(3S)-1-[2-methyl-6-[[5-(4-pyridyl)thiazol-2-yl]amino]pyrimidin-4-yl]pyrrolidin-3-yl]propanamide], at FLT3, the IC50 was less than 0.01 µM.

For `C=CC(=O)N1CCC[C@H]1C(=O)N[C@H]1CCN(c2cc(Nc3ncc(-c4ccncc4)s3)nc(C)n2)C1` [Compound 21, (2S)—N-[(3S)-1-[2-methyl-6-[[5-(4-pyridyl)thiazol-2-yl]amino]pyrimidin-4-yl]pyrrolidin-3-yl]-1-prop-2-enoyl-pyrrolidine-2-carboxamide], on FLT3, the IC50 is less than 0.01 µM. The same measure, in the same setting: next, `C=CC(=O)N1CCC[C@H]1C(=O)NCCNc1cc(Nc2ncc(-c3ccncc3)s2)nc(C)n1` [Compound 22, (2S)—N-[2-[[2-methyl-6-[[5-(4-pyridyl)thiazol-2-yl]amino]pyrimidin-4-yl]amino]ethyl]-1-prop-2-enoyl-pyrrolidine-2-carboxamide]: less than 0.01 µM. The term GI50 denotes the concentration at which growth is held to half of that of the control. As for `C=CC(=O)N(C)[C@@H](C)C(=O)NCCNC(=O)c1c[nH]c(/C=C2\C(=O)Nc3ccc(F)cc32)c1C` [Compound 23, 5-[(5-fluoro-2-oxo-indolin-3-ylidene)methyl]-4-methyl-N-[2-[[(2S)-2-[methyl(prop-2-enoyl)amino]propanoyl]amino]ethyl]-1H-pyrrole-3-carboxamide], the GI50 is not below 1 µM in the experiment on THP−1 and less than 0.01 µM with MV4−11. Also, on FLT3, the IC50 was less than 0.01 µM. In the case of `CCC(=O)N(C)[C@@H](C)C(=O)NCCNC(=O)c1c[nH]c(/C=C2\C(=O)Nc3ccc(F)cc32)c1C` [Compound 24, 5-[(5-fluoro-2-oxo-indolin-3-ylidene)methyl]-4-methyl-N-[2-[[(2S)-2-[methyl(propanoyl)amino]propanoyl]amino]ethyl]-1H-pyrrole-3-carboxamide], the “THP−1 GI50” value with THP−1 was “=”. Also, the IC50 on FLT3 lay within 0.01 to 0.1 µM. In the experiment on MV4−11, this compound displayed a GI50 of 0.01 to 0.1 µM. `CC#CC(=O)N(C)[C@@H](C)C(=O)NCCNC(=O)c1c[nH]c(/C=C2\C(=O)Nc3ccc(F)cc32)c1C` [Compound 25, N-[2-[[(2S)-2-[but-2-ynoyl(methyl)amino]propanoyl]amino]ethyl]-5-[(5-fluoro-2-oxo-indolin-3-ylidene)methyl]-4-methyl-1H-pyrrole-3-carboxamide]: the GI50 was not below 1 µM in the experiment on THP−1 and less than 0.01 µM with MV4−11. The IC50 on FLT3 was less than 0.01 µM.
